In one experiment the target is anti-Dengue-1 antibody. Briefly: Peptide binding assay using fluorescence polarization, anti-Dengue-1. Particulars: read-out: Kd, fluorescence polarization titration (Eq. 8); 10 nM fluorescein-labeled peptide titrated with antibody. On the technique in general: Fluorescence polarisation rises when a labelled molecule tumbles more slowly, as on binding a larger partner.

In a further experiment the target is anti-HIV1-p17 antibody. Briefly: Peptide binding assay using fluorescence polarization, anti-HIV1-p17.
For a further experiment, the target named is anti-HA antibody. The experiment in a line: Peptide binding assay using fluorescence polarization, anti-HA.
The mark [1] stands for this setting: read-out: Kd, fluorescence polarization titration (Eq. 8), 10 nM fluorescein-labeled short epitope peptide titrated with antibody.

Where “and” joins values, the source holds several entries; their conditions need not be identical. Equal entries are not always repeated. Where two headings read alike, the source gives them in different places. Fluorescein = fluorescein label attached to a cysteine side chain

Turning to EHKYSWKS, the Kd on anti-Dengue-1 antibody came out at 70 nM. For the substance EHKYSWKS-GGG-C(Fluorescein), the Kd on anti-Dengue-1 antibody came out at 70 ± 13 nM. Turning to ELDRWEKIRLRP, the Kd on anti-HIV1-p17 antibody (read-out: Kd (Kd1) of non-labeled peptide, competition assay (Eqs. 9 and 10), antibody and fluorescein-labeled peptide 100 nM each, titrated with non-labeled peptide) came to 42 ± 1 nM. Turning to ELDRWEKIRLRP-GGG-C(Fluorescein), the Kd on anti-HIV1-p17 antibody (read-out: Kd, fluorescence polarization titration (Eq. 8), 10 nM fluorescein-labeled peptide titrated with antibody) came to 24 ± 3 nM.

With WEKIRLR, the Kd on anti-HIV1-p17 antibody (setting [1]) was ~3000 nM and 3300 nM. Still for that read-out and setting: the same measure for “WEKIRLR-GGG-C(Fluorescein) (Ac-WEKIRLRGGGC(Fluorescein)-NH2)”: 3300 ± 200 nM.

Turning to YPYDVPDYA, the Kd on anti-HA antibody (read-out: Kd (Kd1) of non-labeled peptide, competition assay (Eqs. 9 and 10), antibody and fluorescein-labeled peptide 10 nM each, titrated with non-labeled peptide) was 4.5 nM and ~5 nM. For the substance YPYDVPDYA-GGG-C(Fluorescein), at anti-HA antibody (read-out: Kd, fluorescence polarization titration (Eq. 8), 2 nM fluorescein-labeled peptide titrated with antibody), the Kd was 0.58 ± 0.22 nM.

These data come from patent US20150285818A1, “Switchable Reporter Enzymes for Homogenous Antibody Detection” (TECHNISCHE UNIVERSITEIT EINDHOVEN, priority 2012, published 2015).
